# In PMC10030653, “ClpC2 protects mycobacteria against a natural antibiotic targeting ClpC1-dependent protein degradation” (Communications Biology, 2023):
# Numbered stars: 1 amine (or outer) side, 2 acyl side, 3 side chain; on linkers, the order of the positions; unused ones are H or OH. Square brackets hold non-standard residues; d marks the D form. Peptide text beside a SMILES is read from it. X1 = CC(C)([C@@H]1CO1)n1cc([C@@H](O)[C@H](N[*:1])C(=O)[*:2])c2ccccc21; Ala(3R-Me,3-isobutenyl) = CC(C)=C[C@@H](C)[C@H](N)C(=O)O; NMeLeu(5-OH,4R) = CN[C@@H](C[C@@H](C)CO)C(=O)O; Phe(βR-OMe) = CO[C@H](c1ccccc1)[C@H](N)C(=O)O; NMeL = CN[C@@H](CC(C)C)C(=O)O
# Experiments:
# [1] = system: ClpC1; conditions: Msm, 150 nM CymA, 0-8 h
# [2] = system: ClpC2; type: cell-based, Mycobacterium smegmatis; conditions: Msm, 150 nM CymA, around 8 h after addition
# [3] = system: mycobacteria; conditions: cited from earlier work
# [4] = system: ClpC2; type: cell-based, Mycobacterium smegmatis; conditions: Msm WT, OD600 0.5, 150 nM CymA, 37 °C, from 1 h to 8 h after addition
# [5] = system: ClpC1 hexamer/ClpP1P2 tetradecamer (ClpC1P); assay: FITC-casein degradation assay; type: biochemical, Mycobacterium tuberculosis; conditions: 2 μM CymA
# Experimental: Degradation of FITC-casein (Sigma) was carried out in 50 mM HEPES-KOH pH 7.1, 150 mM KCl, 20 mM MgCl2, 10% glycerol by 0.5 μM ClpC1 hexamer and 0.8 μM ClpP1P2 tetradecamer with the addition of 0.4 mM activator peptide benzyloxycarbonyl-L-leucyl-L-leucinal (PeptaNova), 0.5 mM DTT, 1 U/ml creatine phosphokinase, 20 mM phosphocreatine, 10 mM ATP at 37 °C. […] Whereas the effect of an excess of ClpC2 on the degradation of FITC-casein (10 μM) was carried out in the presence of 100 μM ClpC2. Fluorescence intensity increases upon degradation of FITC-casein as a consequence of fluorophore dequenching was monitored using the BioTek Synergy 2 Plate Reader with a 485/20 nm band-pass […] filter. Rates of degradation were determined from the initial slopes and used to determine the CymA-induced stimulation of ClpC1P activity at the different concentrations of ClpC2.
# [6] = system: ClpC2 / clpC2 operator DNA; assay: EMSA, ClpC2 binding to clpC2 operator DNA; design: species or system Mycobacterium tuberculosis; conditions: for fraction of DNA bound to ClpC2: 1 μM CymA
# [7] = system: ClpC1; conditions: cited from earlier work
# [8] = system: clpC2 mRNA; assay: RT-qPCR of clpC2 expression after CymA; type: cell-based, Mycobacterium smegmatis; conditions: Msm, 150 nM CymA; for Cq value ClpC2 / Cq value RpoB (reference gene): 1 h
# [9] = target: Mtb ClpC1 NTD (ClpC1^1-145) (Mycobacterium tuberculosis, UniProt P9WPC9); assay: biochemical; type: binding
# Sequence of Mtb ClpC1 NTD (ClpC1^1-145) (P9WPC9 1-145): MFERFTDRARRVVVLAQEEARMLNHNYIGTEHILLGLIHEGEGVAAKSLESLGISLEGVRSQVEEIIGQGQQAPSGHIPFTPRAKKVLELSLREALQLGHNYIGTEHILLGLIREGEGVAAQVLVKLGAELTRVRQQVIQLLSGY
# [10] = system: Staphylococcus aureus; conditions: cited from earlier work
# From the text: (§1) CymA is a cyclic heptapeptide that is synthesised by the marine bacterium Streptomyces sp. CNB-982[33]–[35].
# [11] = system: Escherichia coli; conditions: cited from earlier work
# From the text: as §1
# [12] = system: ClpC1 NTD; conditions: cited from earlier work
# [13] = system: Mycobacterium smegmatis; assay: Growth curves of Msm strains with CymA
# Experimental: Mycobacterium smegmatis MC^2155 SMR5 and derived strains were routinely grown at 37 °C with shaking in DIFCO™ Middlebrook7H9 broth (BD) supplemented with 0.05% Tween 80 and 0.2% glycerol. The antibiotics apramycin (50 µg/ml) or hygromycin B (100 µg/ml) were added as needed. […] The DMSO concentration of cultures was maintained at less than 1% in all instances.
# Msm cultures were diluted to an OD600 of 0.005 in 7H9. […] The cultures were grown at 37 °C with shaking (200 rpm) and the culture growth monitored by periodically measuring the OD600.
smiles,measurement,setting,value
"CO[C@H](c1ccccc1)[C@@H]1NC(=O)[C@H](C)NC(=O)[C@H](C[C@@H](C)CO)N(C)C(=O)[C@H]([C@H](O)c2cn(C(C)(C)[C@@H]3CO3)c3ccccc23)NC(=O)[C@H]([C@H](C)C=C(C)C)NC(=O)[C@H](CC(C)C)N(C)C(=O)[C@H](C(C)C)NC1=O [CymA, cyclomarin A] (cyclo(A[Phe(βR-OMe)]V[NMeL][Ala(3R-Me,3-isobutenyl)][X1][NMeLeu(5-OH,4R)]))",ClpC1 level after CymA,[1],remained fairly constant
same,ClpC2 level in excess of ClpC1,[2],84 fold
same,activity against mycobacteria,[3],effective against mycobacteria
same,ClpC2 Western blot signal,[4],increases by several orders of magnitude
same,FITC-casein degradation rate,"[5]; 0 μM ClpC2, 37 °C, replicate 1",8.073 min⁻¹
same,FITC-casein degradation rate,"[5]; 0 μM ClpC2, 37 °C, replicate 2",7.688 min⁻¹
same,FITC-casein degradation rate,"[5]; 0 μM ClpC2, 37 °C, replicate 3",7.795 min⁻¹
same,FITC-casein degradation rate,"[5]; 0.2 μM ClpC2, 37 °C, replicate 1",7.586 min⁻¹
same,FITC-casein degradation rate,"[5]; 0.2 μM ClpC2, 37 °C, replicate 2",7.529 min⁻¹
same,FITC-casein degradation rate,"[5]; 0.2 μM ClpC2, 37 °C, replicate 3",6.77 min⁻¹
same,FITC-casein degradation rate,"[5]; 0.5 μM ClpC2, 37 °C, replicate 1",6.271 min⁻¹
same,FITC-casein degradation rate,"[5]; 0.5 μM ClpC2, 37 °C, replicate 2",6.851 min⁻¹
same,FITC-casein degradation rate,"[5]; 0.5 μM ClpC2, 37 °C, replicate 3",6.213 min⁻¹
same,FITC-casein degradation rate,"[5]; 1 μM ClpC2, 37 °C, replicate 1",6.248 min⁻¹
same,FITC-casein degradation rate,"[5]; 1 μM ClpC2, 37 °C, replicate 2",6.426 min⁻¹
same,FITC-casein degradation rate,"[5]; 1 μM ClpC2, 37 °C, replicate 3",5.933 min⁻¹
same,FITC-casein degradation rate,"[5]; 2 μM ClpC2, 37 °C, replicate 1",4.9721 min⁻¹
same,FITC-casein degradation rate,"[5]; 2 μM ClpC2, 37 °C, replicate 2",4.555 min⁻¹
same,FITC-casein degradation rate,"[5]; 2 μM ClpC2, 37 °C, replicate 3",5.043 min⁻¹
same,FITC-casein degradation rate,"[5]; 4 μM ClpC2, 37 °C, replicate 1",4.194 min⁻¹
same,FITC-casein degradation rate,"[5]; 4 μM ClpC2, 37 °C, replicate 2",4.045 min⁻¹
same,FITC-casein degradation rate,"[5]; 4 μM ClpC2, 37 °C, replicate 3",3.662 min⁻¹
same,FITC-casein degradation rate,"[5]; 8 μM ClpC2, 37 °C, replicate 1",3.41 min⁻¹
same,FITC-casein degradation rate,"[5]; 8 μM ClpC2, 37 °C, replicate 2",3.29 min⁻¹
same,FITC-casein degradation rate,"[5]; 8 μM ClpC2, 37 °C, replicate 3",3.596 min⁻¹
same,FITC-casein degradation rate,"[5]; 12 μM ClpC2, 37 °C, replicate 1",3.454 min⁻¹
same,FITC-casein degradation rate,"[5]; 12 μM ClpC2, 37 °C, replicate 2",2.89 min⁻¹
same,FITC-casein degradation rate,"[5]; 12 μM ClpC2, 37 °C, replicate 3",2.828 min⁻¹
same,FITC-casein degradation rate,"[5]; 18 μM ClpC2, 37 °C, replicate 1",3.091 min⁻¹
same,FITC-casein degradation rate,"[5]; 18 μM ClpC2, 37 °C, replicate 2",2.23 min⁻¹
same,FITC-casein degradation rate,"[5]; 18 μM ClpC2, 37 °C, replicate 3",2.386 min⁻¹
same,fraction of DNA bound to ClpC2,"[6]; 1 nM ClpC2, replicate 1",0
same,fraction of DNA bound to ClpC2,"[6]; 1 nM ClpC2, replicate 2",0.02788
same,fraction of DNA bound to ClpC2,"[6]; 1 nM ClpC2, replicate 3",0.04348
same,fraction of DNA bound to ClpC2,"[6]; 2 nM ClpC2, replicate 1",0
same,fraction of DNA bound to ClpC2,"[6]; 2 nM ClpC2, replicate 2",0.03704
same,fraction of DNA bound to ClpC2,"[6]; 2 nM ClpC2, replicate 3",0.05455
same,fraction of DNA bound to ClpC2,"[6]; 5 nM ClpC2, replicate 1",0.09091
same,fraction of DNA bound to ClpC2,"[6]; 5 nM ClpC2, replicate 2",0.08
same,fraction of DNA bound to ClpC2,"[6]; 5 nM ClpC2, replicate 3",0.06873
same,fraction of DNA bound to ClpC2,"[6]; 10 nM ClpC2, replicate 1",0.1629
same,fraction of DNA bound to ClpC2,"[6]; 10 nM ClpC2, replicate 2",0.1615
same,fraction of DNA bound to ClpC2,"[6]; 10 nM ClpC2, replicate 3",0.1694
same,fraction of DNA bound to ClpC2,"[6]; 15 nM ClpC2, replicate 1",0.2974
same,fraction of DNA bound to ClpC2,"[6]; 15 nM ClpC2, replicate 2",0.2686
same,fraction of DNA bound to ClpC2,"[6]; 15 nM ClpC2, replicate 3",0.2612
same,fraction of DNA bound to ClpC2,"[6]; 25 nM ClpC2, replicate 1",0.5671
same,fraction of DNA bound to ClpC2,"[6]; 25 nM ClpC2, replicate 2",0.4781
same,fraction of DNA bound to ClpC2,"[6]; 25 nM ClpC2, replicate 3",0.3902
same,fraction of DNA bound to ClpC2,"[6]; 50 nM ClpC2, replicate 1",0.7982
same,fraction of DNA bound to ClpC2,"[6]; 50 nM ClpC2, replicate 2",0.7344
same,fraction of DNA bound to ClpC2,"[6]; 50 nM ClpC2, replicate 3",0.731
same,effect of CymA on ClpC2-operator DNA binding,"[6]; EMSA, 1 µM CymA, room temperature, 20 min, pH 7.5",noticeable inhibitory effect on the interaction between ClpC2 and its operator site
same,effect on ClpC1 ATPase and proteolytic activity,[7],enhance the ATPase and proteolytic activity as well as reduce substrate specificity of ClpC1
same,Cq value ClpC2,[8]; replicate 1,21.9726
same,Cq value RpoB (reference gene),[8]; replicate 1,23.9629
same,Cq value ClpC2,[8]; replicate 2,21.7648
same,Cq value RpoB (reference gene),[8]; replicate 2,24.1812
same,Cq value ClpC2,[8]; replicate 3,20.9483
same,Cq value RpoB (reference gene),[8]; replicate 3,23.5984
same,increase in clpC2 mRNA,"[8]; one hour, normalised to rpoB, biological n = 3, P = 0.0015 (two-tailed unpaired t test)",263 fold
same,Kd,[9],2.3 nM
same,activity against Staphylococcus aureus,[10],little activity
same,activity against Escherichia coli,[11],little activity
same,target binding domain,[12],specifically target ClpC1 NTD
same,growth of ΔclpC2 with CymA,"[13]; Msm ΔclpC2, sub-MIC50 CymA (150 nM), 7H9, 37 °C, vs parent strain",diminished growth compared to the parent strain
same,growth of comclpC2 F99A with CymA,"[13]; Msm ΔclpC2 complemented with clpC2 F99A, 150 nM CymA, 7H9, 37 °C",attenuated growth upon exposure to CymA
same,growth of comclpC2 R188A/R192A with CymA,"[13]; Msm ΔclpC2 complemented with clpC2 R188A/R192A, in the presence of CymA",lack of growth impairment
same,growth of comclpC2 WT with CymA,"[13]; Msm ΔclpC2 complemented with clpC2 WT, 150 nM CymA, 7H9, 37 °C",the WT phenotype was restored
